Test results published in ChEMBL document CHEMBL1134073 (Bioorg Med Chem Lett, 2001).

Columns and labels:
[1] = molecular target: Human immunodeficiency virus type 1 protease (Human immunodeficiency virus 1, UniProt Q72874); assay: Inhibitory activity against HIV protease
[2] = test system: MT4; assay: Antiviral activity against HIV in presence of 50% human serum in MT-4 cell was determined; assay type: functional, cell-based

SMILES | Ki [1] [nM] | EC50 [2] [nM]
Cc1cccc(C)c1OCC(=O)N[C@@H](Cc1ccccc1)[C@@H](O)C[C@H](Cc1ccccc1)NC(=O)[C@H](C(C)C)N1CCC(O)NC1=O (stereo not given in full) | 0.0012 | 2310
Cc1cccc(C)c1OCC(=O)N[C@@H](Cc1ccccc1)[C@@H](O)C[C@H](Cc1ccccc1)NC(=O)[C@H](C(C)C)N1CCCNC1=O [LOPINAVIR] | – | 104
Cc1cccc(C)c1OCC(=O)N[C@@H](Cc1ccccc1)[C@@H](O)C[C@H](Cc1ccccc1)NC(=O)[C@H](C(C)C)N1CCC(=O)NC1=O | 0.0007 | 1410
